A word on the IC50: it is the point on the concentration scale where inhibition reaches its midpoint. Higher therefore signals weaker potency. The Ki is the equilibrium dissociation constant of an inhibitor or competing ligand from its target. A lower Ki goes with tighter binding. As a reminder, the logD is the decadic logarithm of the distribution of all forms, ionised or not, between an organic phase and buffer at a given pH. Lower therefore signals lower lipophilicity.

The target of data set [1] is Vascular endothelial growth factor receptor 2 (Homo sapiens, UniProt P35968).
Sequence of Vascular endothelial growth factor receptor 2 (P35968 whole entry): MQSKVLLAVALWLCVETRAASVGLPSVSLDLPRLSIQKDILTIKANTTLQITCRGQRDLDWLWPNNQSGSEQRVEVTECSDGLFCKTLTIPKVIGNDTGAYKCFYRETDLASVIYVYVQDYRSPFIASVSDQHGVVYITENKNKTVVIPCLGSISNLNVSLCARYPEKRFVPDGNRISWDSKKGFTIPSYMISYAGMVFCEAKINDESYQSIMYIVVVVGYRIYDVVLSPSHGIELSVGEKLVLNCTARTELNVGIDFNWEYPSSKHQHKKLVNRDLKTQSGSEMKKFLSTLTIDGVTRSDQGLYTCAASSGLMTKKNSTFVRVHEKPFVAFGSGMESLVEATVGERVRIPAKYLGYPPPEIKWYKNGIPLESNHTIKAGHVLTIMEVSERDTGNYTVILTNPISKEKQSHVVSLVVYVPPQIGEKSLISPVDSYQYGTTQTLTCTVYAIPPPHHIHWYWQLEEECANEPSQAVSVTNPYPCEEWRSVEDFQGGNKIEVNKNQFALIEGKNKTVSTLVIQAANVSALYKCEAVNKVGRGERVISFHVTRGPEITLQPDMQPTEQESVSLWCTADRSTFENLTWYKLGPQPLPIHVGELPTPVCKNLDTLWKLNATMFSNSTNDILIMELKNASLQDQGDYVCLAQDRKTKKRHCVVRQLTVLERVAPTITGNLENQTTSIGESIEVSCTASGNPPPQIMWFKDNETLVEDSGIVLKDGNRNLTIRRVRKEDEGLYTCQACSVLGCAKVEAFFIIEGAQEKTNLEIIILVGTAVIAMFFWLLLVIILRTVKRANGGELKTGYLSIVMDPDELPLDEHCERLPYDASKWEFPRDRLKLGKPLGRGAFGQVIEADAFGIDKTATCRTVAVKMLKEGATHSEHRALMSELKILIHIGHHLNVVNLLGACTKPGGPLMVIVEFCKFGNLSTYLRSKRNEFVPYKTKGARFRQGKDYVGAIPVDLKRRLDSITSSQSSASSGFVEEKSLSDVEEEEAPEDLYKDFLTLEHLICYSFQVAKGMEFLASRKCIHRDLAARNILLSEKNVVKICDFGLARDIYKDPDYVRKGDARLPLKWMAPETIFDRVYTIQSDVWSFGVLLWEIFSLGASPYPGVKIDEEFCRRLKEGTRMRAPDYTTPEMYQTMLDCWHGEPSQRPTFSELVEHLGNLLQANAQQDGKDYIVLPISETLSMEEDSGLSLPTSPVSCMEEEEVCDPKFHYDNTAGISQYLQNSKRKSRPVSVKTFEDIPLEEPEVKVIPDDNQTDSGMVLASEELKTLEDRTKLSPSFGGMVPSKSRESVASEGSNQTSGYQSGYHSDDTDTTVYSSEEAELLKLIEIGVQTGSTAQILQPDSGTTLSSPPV
The test system of data set [2] is SH-SY5Y. Description: Cytotoxicity against human SH-SY5Y cells. Type of data set: functional, cell-based.
The target of data set [3] is T1, ALK tyrosine kinase receptor (Homo sapiens, UniProt Q9UM73).
T1 sequence (Q9UM73 whole entry): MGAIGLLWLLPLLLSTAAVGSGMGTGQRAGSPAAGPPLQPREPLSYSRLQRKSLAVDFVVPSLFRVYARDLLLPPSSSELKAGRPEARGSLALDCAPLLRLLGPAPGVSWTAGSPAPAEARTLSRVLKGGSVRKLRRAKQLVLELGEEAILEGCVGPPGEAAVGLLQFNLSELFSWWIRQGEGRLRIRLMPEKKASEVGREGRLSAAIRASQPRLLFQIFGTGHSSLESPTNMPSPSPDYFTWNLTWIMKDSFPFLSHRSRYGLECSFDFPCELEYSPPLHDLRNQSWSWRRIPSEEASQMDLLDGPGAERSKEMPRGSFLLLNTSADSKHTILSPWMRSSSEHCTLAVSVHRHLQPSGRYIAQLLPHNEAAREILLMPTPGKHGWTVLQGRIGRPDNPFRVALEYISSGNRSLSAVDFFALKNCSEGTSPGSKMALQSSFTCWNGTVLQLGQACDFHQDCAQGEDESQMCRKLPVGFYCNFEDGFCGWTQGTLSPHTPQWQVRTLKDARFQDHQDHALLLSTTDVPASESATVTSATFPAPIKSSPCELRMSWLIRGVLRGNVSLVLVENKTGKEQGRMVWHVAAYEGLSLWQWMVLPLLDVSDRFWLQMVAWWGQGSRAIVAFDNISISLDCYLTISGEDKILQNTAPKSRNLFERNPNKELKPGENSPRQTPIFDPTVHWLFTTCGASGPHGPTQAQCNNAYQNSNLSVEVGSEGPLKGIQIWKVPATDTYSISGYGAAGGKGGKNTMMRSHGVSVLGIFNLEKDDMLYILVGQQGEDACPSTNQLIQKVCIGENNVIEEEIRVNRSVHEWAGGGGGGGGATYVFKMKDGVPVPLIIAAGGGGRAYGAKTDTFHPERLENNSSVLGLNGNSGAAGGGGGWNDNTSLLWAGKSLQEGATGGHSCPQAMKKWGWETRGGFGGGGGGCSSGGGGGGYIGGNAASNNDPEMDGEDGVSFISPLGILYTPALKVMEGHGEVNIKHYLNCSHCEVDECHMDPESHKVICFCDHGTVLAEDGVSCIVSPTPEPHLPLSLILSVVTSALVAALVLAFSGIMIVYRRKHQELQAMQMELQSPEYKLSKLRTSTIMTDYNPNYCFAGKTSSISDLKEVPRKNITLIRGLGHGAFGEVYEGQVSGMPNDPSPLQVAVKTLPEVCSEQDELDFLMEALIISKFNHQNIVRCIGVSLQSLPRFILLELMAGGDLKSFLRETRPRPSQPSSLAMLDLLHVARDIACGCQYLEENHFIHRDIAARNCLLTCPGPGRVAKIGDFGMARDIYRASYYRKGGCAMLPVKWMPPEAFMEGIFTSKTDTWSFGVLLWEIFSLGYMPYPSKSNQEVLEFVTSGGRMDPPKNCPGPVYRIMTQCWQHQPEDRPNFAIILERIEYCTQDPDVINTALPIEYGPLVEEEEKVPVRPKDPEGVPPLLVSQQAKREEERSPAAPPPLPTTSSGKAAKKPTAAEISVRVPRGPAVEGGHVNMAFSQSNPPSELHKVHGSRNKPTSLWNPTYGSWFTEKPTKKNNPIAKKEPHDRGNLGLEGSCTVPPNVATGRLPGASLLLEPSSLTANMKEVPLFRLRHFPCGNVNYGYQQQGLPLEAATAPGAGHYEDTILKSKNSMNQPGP
The subject of data set [4] is IMR-32. Briefly: Cytotoxicity against human IMR32 cells. The class given is functional, cell-based.
Data set [5] in a line: physchem. The settings on record: octanol/water.
Data set [6] concerns NCI-H3122. Description: cells. The settings on record: Homo sapiens.
Data set [7] deals with T1, ALK tyrosine kinase receptor. This is another data set of the same source.
Data set [8] concerns NCI-H3122. Briefly: Potency index, ratio of crizotinib IC50 to test compound IC50 for cytotoxicity against human NCI-H3122 cells harboring EML4-ALK E13;A20 mutant. The class given is functional.
The subject of data set [9] is NCI-H3122. Briefly: Cytotoxicity against human NCI-H3122 cells harboring EML4-ALK E13;A20 mutant incubated for 72 hrs by Cell titer blue assay. The class given is functional, cell-based. As to conditions: NCI-H3122, 72 h. A general note: Alamar Blue is a resazurin reagent that responds to reducing activity.
The target in data set [10] is Hepatocyte growth factor receptor (Homo sapiens, UniProt P08581). Briefly: Inhibition of c-MET (unknown origin) by kinome scan-based assay.
Sequence of Hepatocyte growth factor receptor (P08581 whole entry): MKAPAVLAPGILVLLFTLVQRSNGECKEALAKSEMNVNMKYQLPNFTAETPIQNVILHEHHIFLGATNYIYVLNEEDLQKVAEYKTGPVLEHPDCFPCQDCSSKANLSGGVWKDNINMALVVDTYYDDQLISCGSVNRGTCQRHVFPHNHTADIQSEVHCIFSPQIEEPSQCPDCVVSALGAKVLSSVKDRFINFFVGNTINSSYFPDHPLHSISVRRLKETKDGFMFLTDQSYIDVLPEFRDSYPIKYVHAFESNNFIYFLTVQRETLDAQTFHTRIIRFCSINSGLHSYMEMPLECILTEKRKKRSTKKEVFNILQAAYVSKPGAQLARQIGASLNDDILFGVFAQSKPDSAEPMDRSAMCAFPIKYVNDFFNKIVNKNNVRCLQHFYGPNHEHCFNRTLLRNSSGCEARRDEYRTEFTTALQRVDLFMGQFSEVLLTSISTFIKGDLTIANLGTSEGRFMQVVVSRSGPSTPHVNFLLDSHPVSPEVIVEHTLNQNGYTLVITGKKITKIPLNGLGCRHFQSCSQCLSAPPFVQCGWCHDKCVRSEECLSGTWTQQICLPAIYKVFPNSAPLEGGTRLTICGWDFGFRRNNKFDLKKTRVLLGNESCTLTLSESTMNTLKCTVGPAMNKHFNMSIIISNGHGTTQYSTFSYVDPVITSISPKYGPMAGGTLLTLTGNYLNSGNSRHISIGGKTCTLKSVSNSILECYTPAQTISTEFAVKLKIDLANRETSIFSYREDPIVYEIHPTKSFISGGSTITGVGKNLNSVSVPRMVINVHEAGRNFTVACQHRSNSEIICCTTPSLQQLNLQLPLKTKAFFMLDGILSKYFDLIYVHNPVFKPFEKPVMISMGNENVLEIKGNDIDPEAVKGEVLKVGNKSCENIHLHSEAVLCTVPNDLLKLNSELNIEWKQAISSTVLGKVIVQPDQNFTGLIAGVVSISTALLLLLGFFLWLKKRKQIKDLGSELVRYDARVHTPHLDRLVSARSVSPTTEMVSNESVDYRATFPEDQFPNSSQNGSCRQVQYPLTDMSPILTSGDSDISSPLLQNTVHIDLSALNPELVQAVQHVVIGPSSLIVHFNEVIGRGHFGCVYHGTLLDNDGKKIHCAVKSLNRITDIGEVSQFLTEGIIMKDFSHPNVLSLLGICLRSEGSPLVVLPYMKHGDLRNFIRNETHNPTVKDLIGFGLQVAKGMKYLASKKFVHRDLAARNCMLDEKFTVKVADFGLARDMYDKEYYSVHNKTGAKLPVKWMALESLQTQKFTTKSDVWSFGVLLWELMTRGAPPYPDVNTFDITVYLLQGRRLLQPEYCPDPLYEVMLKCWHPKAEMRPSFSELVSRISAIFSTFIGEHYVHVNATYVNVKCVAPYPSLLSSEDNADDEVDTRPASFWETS

In the case of `CCc1cc2c(cc1N1CCN(C3COC3)CC1)C(C)(C)c1[nH]c3cc(C#N)ccc3c1C2=O`, the IC50 in data set [1] was > 5000 nM.
On to `COc1cc(N2CCC(N)CC2)ccc1Nc1ncc(Cl)c(-c2c[nH]c3ccccc23)n1`, for which the IC50 in data set [2] was 1.7 nM; in data set [4], 2.8 nM. Moreover, the affinity in [3], expressed as Ki, was 0.75 nM.
For the compound `Cc1nn(C)c2c1Cc1cnc(N)c(c1)O[C@H](C)c1cc(F)ccc1C(=O)N(C)C2`, the logD in data set [5] came out at 2.2.
As to `CCc1cc2c(cc1N1CCC(N3CCOCC3)CC1)C(C)(C)c1[nH]c3cc(C#N)ccc3c1C2=O` [ALECTINIB], in data set [6], half-maximal inhibition (IC50) required 9 nM.
For the compound `C[C@@H]1CN(C(=O)c2ccc(NC(=O)c3cc(O[C@H](C)c4c(Cl)ccc(F)c4Cl)c(N)nn3)cc2)C[C@H](C)N1` [ENSARTINIB], the 50% inhibitory concentration (IC50) in data set [7] was < 0.4 nM; in data set [9], 15 nM; in [10] it was 0.74 nM. Also, in [8], the “Ratio IC50” value turned out to be 10.

For the origin of these results see ChEMBL document CHEMBL4376817, “Drug Discovery Targeting Anaplastic Lymphoma Kinase (ALK)” (J Med Chem, 2019).
